The numbers were not newly measured in patent US8828877B2, “Etching solution and trench isolation structure-formation process employing the same” (AZ Electronic Materials USA Corp., priority 2009, dated 2014), which cites them from elsewhere.

Each structure is given as a SMILES string.

The conditions of data set [1]: in water at 20° C.; "any" = can mix with water in any proportion.
For data set [2] the following is noted: for δH: Hansen solubility parameter, strength of hydrogen bond; for Organic solvent δH: as given in Table 2 for the solvent of the etching solution.

As for `CC(=O)C=O` [Methylglyoxal], in data set [1], the Saturation solubility was ≥ 40.0 wt %. `COCCOC` [Ethylene glycol dimethyl ether]: in data set [1], the Saturation solubility entry is given as “any”.

As to `CCOCC` [Diethyl ether], the Saturation solubility in data set [1] is given as 6.9 wt %. In addition, the δH in data set [2] is listed as 5.1. With `COCC(C)O` (stereo not shown) [Propylene glycol monomethyl ether], in data set [2], the δH was 11.6 and the “Organic solvent δH” value was 10.5. In the case of `CCCCOCCOCCOC(C)=O` [Diethyl glycol butyl ether acetate], in data set [1], the Saturation solubility is given as 6.5 wt %. In addition, in data set [2], the δH was 8.2. For `CC(C)O` [isopropyl alcohol, reference compound], in data set [2], the δH is given as 16.4 and the “Organic solvent δH” value is 16.4. Regarding `CCC=O` [Propion aldehyde], the Saturation solubility in data set [1] is reported as 20.0 wt %.

For the compound `COC(C)COC(C)COC(C)=O` (stereo not shown) [Dipropylene glycol monomethyl ether acetate], the Saturation solubility in data set [1] is listed as 12.0 wt %. The δH in data set [2] is recorded as 8.0. As for `CCOC` [Methyl ethyl ether], the Saturation solubility in data set [1] is given as ≥ 5.0 wt %. The δH in data set [2] is listed as 6.2. On to `COCCOC(C)=O` [Ethylene glycol monomethyl ether acetate], for which, in data set [1], the Saturation solubility entry was “any”. In data set [2], the δH was 11.6 and the “Organic solvent δH” value is reported as 10.6. `CCOCCOC(C)=O` [Ethylene glycol monoethyl ether acetate]: the Saturation solubility in data set [1] is 23.0 wt %. In data set [2], the δH is 10.6. With `COCC(C)OC(C)=O` (stereo not shown) [Propylene glycol monomethyl ether acetate], the Saturation solubility in data set [1] was 19.0 wt %. Moreover, in data set [2], the δH is given as 9.8 and the “Organic solvent δH” value is recorded as 9.0. As to `CCCCOCCOCCO` [Diethyl glycol monobutyl ether], the Saturation solubility in data set [1] is recorded as 6.5 wt %. Further, the δH in data set [2] was 10.6. For `CC(C)=O` [Acetone], the Saturation solubility result in data set [1] is on record as “any”. Moreover, in data set [2], the δH is 7.0 and the “Organic solvent δH” value is on record as 7.0. Consider `CCOCC(C)OC(C)=O` (stereo not shown) [Propylene glycol monoethyl ether acetate], for which the Saturation solubility in data set [1] was ≥ 5.0 wt %. In addition, the δH in data set [2] is on record as 9.0. Take `CCOC(C)=O` [Ethyl acetate]: the δH in data set [2] is 7.2. Regarding `COCOC` [Dimethoxymethane], the Saturation solubility in data set [1] is 32.3 wt %. In data set [2], the δH was 8.6. For `COC(C)COC(C)COC(C)CO` (stereo not shown) [Tripropylene glycol monomethyl ether], in data set [1], the Saturation solubility result is reported as “any”. Further, in data set [2], the δH is on record as 10.4. With `C=C(C)C(=O)O` [Methacrylic acid], the Saturation solubility in data set [1] is 9.7 wt %. Besides, the δH in data set [2] is 10.2.

`COC(C)=O` [Methyl acetate]: the Saturation solubility in data set [1] is 25.0 wt %. Also, the δH in data set [2] is reported as 7.6. On to `CCOCC(C)O` (stereo not shown) [Propylene glycol monoethyl ether], for which the Saturation solubility entry in data set [1] is “any”. Moreover, the δH in data set [2] was 10.5. Consider `CCC(=O)CC` [Diethyl ketone], for which the Saturation solubility in data set [1] is recorded as 5.0 wt %. Also, the δH in data set [2] is 4.7. Take `COC` [Dimethyl ether]: the Saturation solubility in data set [1] is 32.8 wt %. Further, the δH in data set [2] is listed as 5.7.

In the case of `COC(=O)CC(C)=O` [Methyl acetoacetate], the Saturation solubility in data set [1] is recorded as 46.0 wt %. Further, the δH in data set [2] is recorded as 8.9. As to `C=CCOC(=O)CC(C)=O` [Allyl acetoacetate], the Saturation solubility in data set [1] is given as 5.0 wt %. The δH in data set [2] is listed as 8.6.
